Results reported in ChEMBL document CHEMBL1287715, “Discovery of N-benzyl-N'-(4-pipyridinyl)urea CCR5 antagonists as anti-HIV-1 agents (I): optimization of the amine portion” (Bioorg Med Chem Lett, 2010).

What was measured:
HOS = test: Cytotoxicity against HOS cells upto 1 uM by celltiter glo assay; format: cell-based; details: human
[1] = Cytotoxicity against peripheral blood lymphocyte cells upto 1 uM by celltiter glo assay; format: cell-based; details: human

SMILES: C=CCN(C(=O)NCc1ccc(C(=O)OC)cc1)C1CCN(CCC2(c3cccc(F)c3)CCN(C(=O)c3cc(S(=O)(=O)NC(C)(C)C)c(F)cc3Cl)CC2)CC1
- Activity (HOS): Non-toxic
- Activity [1]: Non-toxic

SMILES: C=CCN(C(=O)Cc1ccc(C(F)(F)F)cc1)C1CCN(CCC2(c3cccc(F)c3)CCN(C(=O)c3cc(S(=O)(=O)NC(C)(C)C)c(F)cc3Cl)CC2)CC1
- Activity (HOS): Non-toxic
- Activity [1]: Non-toxic

SMILES: C=CCN(C(=O)Cc1ccc(S(C)(=O)=O)cc1)C1CCN(CCC2(c3cccc(F)c3)CCN(C(=O)c3cc(S(=O)(=O)NC(C)(C)C)c(F)cc3Cl)CC2)CC1
- Activity (HOS): Non-toxic
- Activity [1]: Non-toxic

SMILES: C=CCN(C(=O)OCc1ccc(F)cc1)C1CCN(CCC2(c3cccc(F)c3)CCN(C(=O)c3cc(S(=O)(=O)NC(C)(C)C)c(F)cc3Cl)CC2)CC1
- Activity (HOS): Non-toxic
- Activity [1]: Non-toxic

SMILES: C=CCN(C(=O)Nc1ccc(OC(C)=O)cc1)C1CCN(CCC2(c3cccc(F)c3)CCN(C(=O)c3cc(S(=O)(=O)NC(C)(C)C)c(F)cc3Cl)CC2)CC1
- Activity (HOS): Non-toxic
- Activity [1]: Non-toxic

SMILES: C=CCN(C(=O)NCc1ccc(C(F)(F)F)cc1)C1CCN(CCC2(c3cccc(F)c3)CCN(C(=O)c3cc(S(=O)(=O)NC(C)(C)C)c(F)cc3Cl)CC2)CC1
- Activity (HOS): Non-toxic
- Activity [1]: Non-toxic

SMILES: C=CCN(C(=O)OCc1ccc(C(=O)OC)cc1)C1CCN(CCC2(c3cccc(F)c3)CCN(C(=O)c3cc(S(=O)(=O)NC(C)(C)C)c(F)cc3Cl)CC2)CC1
- Activity (HOS): Non-toxic
- Activity [1]: Non-toxic

SMILES: C=CCN(C(=O)Nc1ccc(C#N)cc1)C1CCN(CCC2(c3cccc(F)c3)CCN(C(=O)c3cc(S(=O)(=O)NC(C)(C)C)c(F)cc3Cl)CC2)CC1
- Activity (HOS): Non-toxic
- Activity [1]: Non-toxic

SMILES: C=CCN(C(=O)Nc1ccc(C(F)(F)F)cc1)C1CCN(CCC2(c3cccc(F)c3)CCN(C(=O)c3cc(S(=O)(=O)NC(C)(C)C)c(F)cc3Cl)CC2)CC1
- Activity (HOS): Non-toxic
- Activity [1]: Non-toxic

SMILES: C=CCN(C(=O)OCc1ccc(C#N)cc1)C1CCN(CCC2(c3cccc(F)c3)CCN(C(=O)c3cc(S(=O)(=O)NC(C)(C)C)c(F)cc3Cl)CC2)CC1
- Activity (HOS): Non-toxic
- Activity [1]: Non-toxic

SMILES: C=CCN(C(=O)Nc1ccc(S(C)(=O)=O)cc1)C1CCN(CCC2(c3cccc(F)c3)CCN(C(=O)c3cc(S(=O)(=O)NC(C)(C)C)c(F)cc3Cl)CC2)CC1
- Activity (HOS): Non-toxic
- Activity [1]: Non-toxic

SMILES: C=CCN(C(=O)Cc1ccc(F)cc1)C1CCN(CCC2(c3cccc(F)c3)CCN(C(=O)c3cc(S(=O)(=O)NC(C)(C)C)c(F)cc3Cl)CC2)CC1
- Activity (HOS): Non-toxic
- Activity [1]: Non-toxic

SMILES: C=CCN(C(=O)NCc1ccc(F)cc1)C1CCN(CCC2(c3cccc(F)c3)CCN(C(=O)c3cc(S(=O)(=O)NC(C)(C)C)c(F)cc3Cl)CC2)CC1
- Activity (HOS): Non-toxic
- Activity [1]: Non-toxic

SMILES: C=CCN(C(=O)Cc1ccc(C(N)=O)cc1)C1CCN(CCC2(c3cccc(F)c3)CCN(C(=O)c3cc(S(=O)(=O)NC(C)(C)C)c(F)cc3Cl)CC2)CC1
- Activity (HOS): Non-toxic
- Activity [1]: Non-toxic

SMILES: C=CCN(C(=O)Nc1ccc(F)cc1)C1CCN(CCC2(c3cccc(F)c3)CCN(C(=O)c3cc(S(=O)(=O)NC(C)(C)C)c(F)cc3Cl)CC2)CC1
- Activity (HOS): Non-toxic
- Activity [1]: Non-toxic

SMILES: C=CCN(C(=O)Cc1ccc(OC(F)(F)F)cc1)C1CCN(CCC2(c3cccc(F)c3)CCN(C(=O)c3cc(S(=O)(=O)NC(C)(C)C)c(F)cc3Cl)CC2)CC1
- Activity (HOS): Non-toxic
- Activity [1]: Non-toxic

SMILES: C=CCN(C(=O)OCc1ccc(C(F)(F)F)cc1)C1CCN(CCC2(c3cccc(F)c3)CCN(C(=O)c3cc(S(=O)(=O)NC(C)(C)C)c(F)cc3Cl)CC2)CC1
- Activity (HOS): Non-toxic
- Activity [1]: Non-toxic

SMILES: C=CCN(C(=O)OCc1ccc(OC(F)(F)F)cc1)C1CCN(CCC2(c3cccc(F)c3)CCN(C(=O)c3cc(S(=O)(=O)NC(C)(C)C)c(F)cc3Cl)CC2)CC1
- Activity (HOS): Non-toxic
- Activity [1]: Non-toxic

SMILES: C=CCN(C(=O)NCc1ccc(C#N)cc1)C1CCN(CCC2(c3cccc(F)c3)CCN(C(=O)c3cc(S(=O)(=O)NC(C)(C)C)c(F)cc3Cl)CC2)CC1
- Activity (HOS): Non-toxic
- Activity [1]: Non-toxic

SMILES: C=CCN(C(=O)OCc1ccc(S(C)(=O)=O)cc1)C1CCN(CCC2(c3cccc(F)c3)CCN(C(=O)c3cc(S(=O)(=O)NC(C)(C)C)c(F)cc3Cl)CC2)CC1
- Activity (HOS): Non-toxic
- Activity [1]: Non-toxic

SMILES: C=CCN(C(=O)NCc1ccc(C(N)=O)cc1)C1CCN(CCC2(c3cccc(F)c3)CCN(C(=O)c3cc(S(=O)(=O)NC(C)(C)C)c(F)cc3Cl)CC2)CC1
- Activity (HOS): Non-toxic
- Activity [1]: Non-toxic
